The target in test [1] is T1, agglutinin from Erythrina cristagalli (ECA) (Erythrina crista-galli, UniProt P83410).
T1 construct: purchased E-Y Labs (San Mateo, Calif.)
T1 sequence (P83410 1-239): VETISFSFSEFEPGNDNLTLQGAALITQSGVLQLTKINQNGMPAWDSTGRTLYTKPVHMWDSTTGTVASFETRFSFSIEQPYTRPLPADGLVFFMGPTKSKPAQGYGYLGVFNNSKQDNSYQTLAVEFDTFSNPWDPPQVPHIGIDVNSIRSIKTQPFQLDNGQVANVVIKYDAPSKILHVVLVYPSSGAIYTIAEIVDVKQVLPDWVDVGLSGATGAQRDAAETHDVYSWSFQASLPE
Briefly: Hapten inhibition of FITC-ECA binding to L cells (FACS). Conditions: FITC-labeled ECA preincubated with hapten. The protocol:
These would represent potential acceptor molecules for a complementing human (α-1,2)fucosyltransferase activity and would allow the resulting surface-expressed Fucα(1,2)Gal linkages to be detected with anti-H antibody. The agglutinin from Erythrina cristagalli (ECA) was used for this analysis. […] L cells were stained with purified, FITC-labeled ECA, or with FITC-labeled ECA that had been preincubated with the hapten N-acetyllactosamine and were subjected to FACS analysis.

In test [2] the target is T2, Fuc-TIV (Homo sapiens, UniProt P22083).
T2 sequence (P22083 1-405 isoform P22083-2): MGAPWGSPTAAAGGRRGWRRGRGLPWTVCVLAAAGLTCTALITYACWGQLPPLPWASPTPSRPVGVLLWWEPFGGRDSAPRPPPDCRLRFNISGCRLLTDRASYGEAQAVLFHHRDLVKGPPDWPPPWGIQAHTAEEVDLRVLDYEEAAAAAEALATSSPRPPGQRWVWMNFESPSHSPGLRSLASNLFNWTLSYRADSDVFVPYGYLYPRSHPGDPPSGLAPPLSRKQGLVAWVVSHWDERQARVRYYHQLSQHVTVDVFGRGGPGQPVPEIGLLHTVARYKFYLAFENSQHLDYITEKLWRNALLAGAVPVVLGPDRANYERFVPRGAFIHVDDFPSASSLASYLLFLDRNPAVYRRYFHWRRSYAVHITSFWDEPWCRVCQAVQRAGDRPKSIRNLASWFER
Briefly: Fucosyltransferase assay, extracts of CHO-FT3 cells (CHO transfected with pCDNA1-Fuc-TIV). As to conditions: standard assay, CHO-FT3 cell extracts. The class given is biochemical. Further details: expressed in transfected cells. The protocol: CHO Ade-C cells were transfected with Scal-linearized pCDM7-Fuc-TIV, co-precipitated in a 10-fold molar excess over EcoRI-linearized pSV2-Neo. A single, clonal, SSEA-1-positive cell line (CHO-FT3) was derived from this population. Cell extracts prepared from CHO-FT3 contained substantial amounts of α(1,3)fucosyltransferase activity when assayed with the acceptor N-acetyllactosamine.
Cell extracts containing 1% Triton X-100 were prepared from transfected COS-1 cells. Fucosyltransferase assays were performed in a total volume of 20 μl, and contained 50 mM sodium cacodylate, pH 6.2, 5 mM ATP, 10 mM fucose, 20 mM MnCl2, 3 μM GDP-^14C-fucose, and 5 μl (30 μg protein) of cell extract. Acceptor substrates were added to a final concentration of 20 mM. Reactions were incubated at 37° C. for 1 hour and terminated by addition of 20 μl ethanol, followed by addition of 600 μl of distilled water. An aliquot of each reaction (50 μl) was subjected to scintillation counting to determine total radioactivity in the reaction. Another aliquot (200 μl) was applied to a column containing 400 μl of Dowex IX2-400, formate form. The flow through fraction, and […] of a subsequent water elution, were collected and pooled, and an aliquot was subjected to scintillation counting to quantitate incorporation of radioactive fucose into neutral product. Descending paper chromatography was used to confirm the structure of the product formed with the acceptor N-acetyllactosamine. The neutral product in the Dowex column eluate was concentrated by lyophilization, resuspended in a small volume of water, and fractionated through Whatman No. 40 in phenol/isopropanol/formic acid/water (85:5:10:100, lower layer). After chromatography (40 hours), the air-dried chromatogram was cut into 1 cm strips and the strips eluted into 2 ml of water. Radioactivity in each eluate was determined by scintillation counting after mixing with 10 ml of scintillation cocktail.

Test [3] relates to monoclonal anti-H antibody (BE2). The test can be described thus: Hapten inhibition of BE2 anti-H antibody binding to mH1-12 cells. Also on record: species or system mouse. As to conditions: antibody preincubated with hapten, 20 mM. The protocol:
Immunofluoroscence was performed on cells plated on 8-well tissue culture chamber slides (Lab-Tek). Cells were plated at a density of 5×10^4/well 24 h prior to analysis. Anti-H and anti-A primary antibodies were diluted in PBS containing bovine serum albumin at 2 mg/ml, to a final concentration of 10 μg/ml. Cell-bound primary antibodies were detected with FITC-conjugated goat anti-mouse IgM, diluted to 40 μg/ml in PBS containing 2 mg/ml bovine serum albumin.
Hapten Inhibition—Plated cells were washed twice with PBS, and were incubated for 30 min at 4° C. with 100 μl of diluted anti-H antibody, or with 100 μl of diluted antibody containing different oligosaccharide haptens, each at a concentration of 20 mM. The chambers were then washed twice, and 100 μl of FITC-conjugated goat anti-mouse IgM was added. After 30 min at 4° C., the chambers were washed three times with PBS, and the cells were fixed at room temperature for 10 min in 3.7% formaldehyde in PBS. The cells were washed twice with PBS, the chambers were removed, and the slide was mounted in PBS containing 25% glycerol. Cells were examined by fluorescence microscopy using a Zeiss Axiophot photomicroscope equipped with fluorescence epiillumination.

With `CC(=O)N[C@H]1C(O)O[C@H](CO)[C@@H](O[C@@H]2O[C@H](CO)[C@H](O)[C@H](O)[C@H]2O)[C@@H]1O` (some centres unmarked) [N-acetyllactosamine], the “inhibition of ECA binding to L cells by hapten” value in test [1] is “effectively inhibited”. Moreover, in test [2], the “α(1,3)fucosyltransferase activity with acceptor substrate” value (“α(1,3)fucosyltransferase activity” below) worked out at 59.1 pmol/mg/h.

For `OC[C@H]1O[C@@H](O[C@H]2[C@H](O)[C@@H](O)C(O)O[C@@H]2CO)[C@H](O)[C@@H](O)[C@H]1O` (some centres unmarked) [lactose], the “α(1,3)fucosyltransferase activity” value in test [2] came to 2.0 pmol/mg/h.

As to “Fucα(1,2)Galβ(1,4)Glc [2-fucosyllactose]”, the “α(1,3)fucosyltransferase activity” value in test [2] amounted to 5.8 pmol/mg/h. The “inhibition of BE2 anti-H antibody binding to mH1-12 cells by hapten” value in test [3] is recorded as “inhibition of binding”.

The record behind these values is patent publication US20020102688A1, “Methods and products for the synthesis of oligosaccharide structures on glycoproteins, glycolipids, or as free molecules, and for the isolation of cloned genetic sequences that determine these structures” (The Regents of the University of Michigan, priority 1990, published 2002).
